Several values for one entry are separate records, joined by “and”; a condition that tells them apart may be missing. Identical values can stand only once.
target: T1, stearoyl-CoA desaturase (SCD) (Rattus norvegicus, UniProt P07308); assay: SCD assay with rat liver microsomes ([3H]stearoyl CoA, adapted from Talamo and Bloch); format: biochemical; conditions: Table 1; rat liver microsomes 0.2 mg/ml assay final, [3H]stearoyl CoA substrate, 30 min preincubation, 45 min reaction, room temperature
T1 construct: The microsomes were quickly thawed and added to assay buffer so that a concentration of 0.4 mg/ml was achieved; from tissue
T1 sequence (P07308 1-358): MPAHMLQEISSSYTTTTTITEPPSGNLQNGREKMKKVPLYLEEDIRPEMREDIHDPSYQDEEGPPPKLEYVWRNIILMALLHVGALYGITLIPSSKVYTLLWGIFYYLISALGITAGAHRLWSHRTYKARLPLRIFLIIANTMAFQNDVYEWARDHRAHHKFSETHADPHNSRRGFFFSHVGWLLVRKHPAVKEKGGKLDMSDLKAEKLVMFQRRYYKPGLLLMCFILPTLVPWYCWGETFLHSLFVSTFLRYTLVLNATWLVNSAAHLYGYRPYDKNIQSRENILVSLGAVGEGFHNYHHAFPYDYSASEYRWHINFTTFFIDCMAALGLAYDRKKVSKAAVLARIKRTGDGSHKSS
In short: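 Liver microsomes came from diet-induced male Sprague Dawley rats and were used at 0.2 mg/ml final. Assay buffer was Tris pH 7.2 with NADH, ATP, CoA, MgCl2 and 0.1% BSA. Compounds were preincubated 30 min, then reacted 45 min at room temperature with [3H]stearoyl-CoA; after TCA stop and Bio-Bead cleanup, supernatant radioactivity was counted by scintillation.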

IC50	SMILES
15000 nM	O=C(COc1ccccc1[N+](=O)[O-])Nc1ccc2ncn(Cc3ccc(Cl)c(Cl)c3)c(=O)c2c1 [XXXI, N-{3-[(3,4-dichlorophenyl)methyl]-4-oxo(3-hydroquinazolin-6-yl)}-2-(2-nitrophenoxy)acetamide]
3590 nM	CCCCCNC(=O)Nc1ccc2ncn(Cc3ccc(Cl)c(Cl)c3)c(=O)c2c1 [IV, N-{3-[(3,4-dichlorophenyl)methyl]-4-oxo(3-hydroquinazolin-6-yl)}(pentylamino)carboxamide]
1160 nM	O=C(CO)Nc1ccc2ncn(Cc3ccc(Cl)c(F)c3)c(=O)c2c1 [XCIX, N-{3-[(4-chloro-3-fluorophenyl)methyl]-4-oxo(3-hydroquinazolin-6-yl)}-2-hydroxyacetamide]
2980 nM	COc1ccc(OCC(=O)Nc2ccc3ncn(Cc4ccc(Cl)c(Cl)c4)c(=O)c3c2)cc1 [XVII, N-{3-[(3,4-dichlorophenyl)methyl]-4-oxo(3-hydroquinazolin-6-yl)}-2-(4-methoxyphenoxy)acetamide]
6600 nM	O=C(CSCc1ccccc1)Nc1ccc2ncn(Cc3ccc(Cl)c(Cl)c3)c(=O)c2c1 [LX, N-{3-[(3,4-dichlorophenyl)methyl]-4-oxo(3-hydroquinazolin-6-yl)}-2-(phenylmethylthio)acetamide]
180 nM	CC(=O)OCC(=O)Nc1ccc2c(=O)n(Cc3ccc(Cl)c(Cl)c3)cnc2c1 [LXIV, (N-{3-[(3,4-dichlorophenyl)methyl]-4-oxo-3-hydroquinazolin-7-yl}carbamoyl)methyl acetate]
3690 nM	O=C(COc1ccccc1F)Nc1ccc2ncn(Cc3ccc(Cl)c(Cl)c3)c(=O)c2c1 [XXVI, N-{3-[(3,4-dichlorophenyl)methyl]-4-oxo(3-hydroquinazolin-6-yl)}-2-(2-fluorophenoxy)acetamide]
4390 nM	O=C(CO)Nc1ccc2c(=O)n(Cc3ccc(F)c(F)c3)cnc2c1 [CIII, N-{3-[(3,4-difluorophenyl)methyl]-4-oxo(3-hydroquinazolin-7-yl)}-2-hydroxyacetamide]
2320 nM and 2230 nM	O=C(CO)Nc1ccc2c(=O)n(Cc3ccc(F)c(Cl)c3)cnc2c1 [LXXXVII, N-{3-[(3-chloro-4-fluorophenyl)methyl]-4-oxo(3-hydroquinazolin-7-yl)}-2-hydroxyacetamide]
2740 nM	CC(=O)OCC(=O)Nc1ccc2ncn(Cc3ccc(C(F)(F)F)cc3)c(=O)c2c1 [XCVI, [N-(4-oxo-3-{[4-(trifluoromethyl)phenyl]methyl}-3-hydroquinazolin-6-yl)carbamoyl]methyl acetate]
250 nM	O=C(Nc1ccc2c(=O)n(Cc3cccc(Cl)c3)cnc2c1)OCc1ccccc1 [LVIII, N-{3-[(3-chlorophenyl)methyl]-4-oxo(3-hydroquinazolin-7-yl)}(phenylmethoxy)carboxamide]
2970 nM	O=C(Nc1ccc2ncn(Cc3ccc(Cl)c(Cl)c3)c(=O)c2c1)OCC1CC1 [LXXXV, N-{3-[(3,4-dichlorophenyl)methyl]-4-oxo(3-hydroquinazolin-6-yl)}(cyclopropylmethoxy)carboxamide]
14000 nM	CC(C)OC(=O)Nc1ccc2ncn(Cc3ccc(Cl)c(Cl)c3)c(=O)c2c1 [IX, N-{3-[(3,4-dichlorophenyl)methyl]-4-oxo(3-hydroquinazolin-6-yl)}(methylethoxy)carboxamide]
250 nM	O=C(Nc1ccc2c(=O)n(Cc3ccc(Cl)c(F)c3)cnc2c1)OCc1cccnc1 [LXXVII, N-{3-[(4-chloro-3-fluorophenyl)methyl]-4-oxo(3-hydroquinazolin-7-yl)}(3-pyridylmethoxy)carboxamide]
50 nM	O=C(Nc1ccc2c(=O)n(Cc3ccc(Cl)c(Cl)c3)cnc2c1)OCc1ccccc1 [LII, N-{3-[(3,4-dichlorophenyl)methyl]-4-oxo(3-hydroquinazolin-7-yl)}(phenylmethoxy)carboxamide]
3180 nM	O=C(NCc1ccccc1)Nc1ccc2ncn(Cc3ccc(Cl)c(Cl)c3)c(=O)c2c1 [V, N-{3-[(3,4-dichlorophenyl)methyl]-4-oxo(3-hydroquinazolin-6-yl)}[benzylamino]carboxamide]

same assay, conditions: Table 2 (Example 21, procedures of Example 20); rat liver microsomes, [3H]stearoyl CoA substrate

IC50 [nM]	SMILES
4900	O=C(CO)Nc1ccc2c(=O)n(CCOc3ccccc3Cl)cnc2c1 [compound 63, N-(3-(2-(2-chlorophenoxy)ethyl)-4-oxo-3,4-dihydroquinazolin-7-yl)-2-hydroxyacetamide]
2100	CC(=O)OCC(=O)Nc1ccc2ncn(Cc3ccc(F)c(F)c3)c(=O)c2c1 [compound 1, 2-(3-(3,4-difluorobenzyl)-4-oxo-3,4-dihydroquinazolin-6-ylamino)-2-oxoethyl acetate]
280	Cc1ccc(Cn2cnc3ccc(NC(=O)CO)cc3c2=O)cc1C [compound 22, N-(3-(3,4-dimethylbenzyl)-4-oxo-3,4-dihydroquinazolin-6-yl)-2-hydroxyacetamide]
15000	O=C(CO)Nc1ccc2ncn(CCNS(=O)(=O)c3cc(Cl)ccc3Cl)c(=O)c2c1 [compound 71, N-(3-(2-(2,5-dichlorophenylsulfonamido)ethyl)-4-oxo-3,4-dihydroquinazolin-6-yl)-2-hydroxyacetamide]
55	O=C(CO)Nc1ccc2ncn(CCCOc3cc(Cl)ccc3Cl)c(=O)c2c1 [compound 43, N-(3-(3-(2,5-dichlorophenoxy)propyl)-4-oxo-3,4-dihydroquinazolin-6-yl)-2-hydroxyacetamide]
360	O=C(Nc1cnc2ncn(Cc3ccc(Cl)c(Cl)c3)c(=O)c2c1)OCc1ccccc1 [compound 77, benzyl 3-(3,4-dichlorobenzyl)-4-oxo-3,4-dihydropyrido[2,3-d]pyrimidin-6-ylcarbamate]
21000	O=C(CO)Nc1ccc2ncn(CCNC(=O)c3cc(Cl)ccc3Cl)c(=O)c2c1 [compound 67, 2,5-dichloro-N-(2-(6-(2-hydroxyacetamido)-4-oxoquinazolin-3(4H)-yl)ethyl)benzamide]
470	CC(=O)OCC(=O)Nc1ccc2ncn(Cc3ccc(C)c(C)c3)c(=O)c2c1 [compound 21, 2-(3-(3,4-dimethylbenzyl)-4-oxo-3,4-dihydroquinazolin-6-ylamino)-2-oxoethyl acetate]
7700	O=C(NCCCO)c1ccc2c(=O)n(Cc3ccc(Cl)c(Cl)c3)cnc2c1 [compound 86, 3-(3,4-dichlorobenzyl)-N-(3-hydroxypropyl)-4-oxo-3,4-dihydroquinazoline-7-carboxamide]
1300	NCC(=O)Nc1ccc2ncn(Cc3ccc(Cl)c(Cl)c3)c(=O)c2c1 [compound 94, 2-amino-N-(3-(3,4-dichlorobenzyl)-4-oxo-3,4-dihydroquinazolin-6-yl)acetamide]
1200	O=C(CO)Nc1ccc2ncn(Cc3ccc(Cl)cc3)c(=O)c2c1 [compound 4, N-(3-(4-chlorobenzyl)-4-oxo-3,4-dihydroquinazolin-6-yl)-2-hydroxyacetamide]
23000	O=C(CO)Nc1ccc2ncn(CCCOc3ccccc3)c(=O)c2c1 [compound 68, 2-hydroxy-N-(4-oxo-3-(3-phenoxypropyl)-3,4-dihydroquinazolin-6-yl)acetamide]
310	O=C(Nc1ccc2ncn(Cc3ccc(F)c(C(F)(F)F)c3)c(=O)c2c1)OCc1ccccc1 [compound 14, benzyl 3-(4-fluoro-3-(trifluoromethyl)benzyl)-4-oxo-3,4-dihydroquinazolin-6-ylcarbamate]
1500	O=C(CO)Nc1ccc2ncn(CCOc3cccc(Cl)c3)c(=O)c2c1 [compound 75, N-(3-(2-(3-chlorophenoxy)ethyl)-4-oxo-3,4-dihydroquinazolin-6-yl)-2-hydroxyacetamide]
45	O=C(Nc1ccc2ncn(CCCOc3ccccc3Cl)c(=O)c2c1)OCc1ccccc1 [compound 59, benzyl 3-(3-(2-chlorophenoxy)propyl)-4-oxo-3,4-dihydroquinazolin-6-ylcarbamate]
1700	O=C(CO)Nc1cnc2ncn(Cc3ccc(Cl)cc3)c(=O)c2c1 [compound 79, N-(3-(4-chlorobenzyl)-4-oxo-3,4-dihydropyrido[2,3-d]pyrimidin-6-yl)-2-hydroxyacetamide]
500	CCC(c1ccc(Cl)c(Cl)c1)n1cnc2ccc(NC(=O)COC(C)=O)cc2c1=O (stereo not shown) [compound 25, 2-(3-(1-(3,4-dichlorophenyl)propyl)-4-oxo-3,4-dihydroquinazolin-6-ylamino)-2-oxoethyl acetate]
700	CC(=O)OCC(=O)Nc1ccc2ncn(Cc3ccc(F)c(C(F)(F)F)c3)c(=O)c2c1 [compound 15, 2-(3-(4-fluoro-3-(trifluoromethyl)benzyl)-4-oxo-3,4-dihydroquinazolin-6-ylamino)-2-oxoethyl acetate]
9800	CC(=O)OCC(=O)Nc1ccc2ncn(CCCOc3ccccc3F)c(=O)c2c1 [compound 47, 2-(3-(3-(2-fluorophenoxy)propyl)-4-oxo-3,4-dihydroquinazolin-6-ylamino)-2-oxoethyl acetate]
3900	O=C(Nc1ccc2ncn(Cc3ccc(Cl)c(Cl)c3)c(=O)c2c1)C(O)CO (stereo not shown) [compound 106, N-(3-(3,4-dichlorobenzyl)-4-oxo-3,4-dihydroquinazolin-6-yl)-2,3-dihydroxypropanamide]
180	O=C(CO)Nc1cnc2ncn(Cc3ccc(Cl)c(Cl)c3)c(=O)c2c1 [compound 78, N-(3-(3,4-dichlorobenzyl)-4-oxo-3,4-dihydropyrido[2,3-d]pyrimidin-6-yl)-2-hydroxyacetamide]

Reference: patent US20090105283A1, “3-HYDROQUINAZOLIN-4-ONE DERIVATIVES FOR USE AS STEAROYL CoA DESATURASE INHIBITORS” (priority 2007, published 2009)
